Test results taken from US12202834B2, “Solid state forms of oclacitinib maleate” (VationPharma B.V., priority 2019, dated 2025).
Values joined by “and” are separate entries in the source; they are usually repeats but may differ in a detail not shown here. Identical values can stand only once. Counter-ions that a name gives are not always drawn.

Columns and labels:
Format in all cases: physicochemical
[1] = Thermodynamic solubility test (saturated solution, gravimetric); details: for Solubility, Average: average of three determinations; for Solubility compared to oclacitinib maleate form A: form A normalized to 100% (FIG. 16); for Solubility: single determination, saturated solution, 15 minutes stirring (600 rpm), 15 minute equilibrium, 0.2 μm filter
Description: The thermodynamic solubility of different forms of oclacitinib maleate was tested by generating a saturated solution for each form (i.e. oclacitinib maleate form A, amorphous oclacitinib maleate and monohydrate form of oclacitinib maleate). After 15 minutes of stirring (600 rpm) and further 15 minute of an equilibrium phase the solution was filtrated over an 0.2 μm syringe filter into a vial with a known weight.
Subsequently, the solvent was allowed to evaporate and the vial was then weighted again.

[2] = Stability tests of solid forms (storage, solid form analysed by XRPD); details: for Relative humidity at which the solid form is stable / can be stored: general statement in description
Description: The stability of the solid forms of oclacitinib obtained was tested at three different conditions, i.e. storage at 25° C. at 0% relative humidity, 40° C. at 75% rH and 25° C. at 100% rH. Alternatively or additionally, the stability of the solid forms of oclacitinib obtained was tested at 25° C. at 25% rH.

[3] = Hygroscopicity of solid state form; details: general statement in description
[4] = relatively high humidity, 25° C. at 100% rH
[5] = relatively high humidity, 40° C. at 75% rH
[6] = relatively low humidity, 25° C. at 0% rH

For `CNS(=O)(=O)C[C@H]1CC[C@H](N(C)c2ncnc3[nH]ccc23)CC1` [Amorphous, amorphous oclacitinib maleate], the “Solubility, Average” value [1] was 37.834 mg/mL, the “Solubility compared to oclacitinib maleate form A” value ([1]; listed as amorphous form of oclacitinib maleate) was “more than twice as soluble” and the Solubility [1] was 37.095 mg/mL and 37.430 mg/mL and 38.976 mg/mL.
For `CNS(=O)(=O)C[C@H]1CC[C@H](N(C)c2ncnc3[nH]ccc23)CC1` [Form A, N-methyl(4-(methyl(7H-pyrrolo[2,3-d]pyrimidin-4-yl)amino)cyclohexyl)methanesulfonamide maleic acid salt, reference compound], the “Relative humidity at which the solid form is stable / can be stored” value ([2]; listed as oclacitinib maleate form A) was “at most 30%”, the “Solubility, Average” value [1] was 17.135 mg/mL and the Solubility [1] was 16.914 mg/mL and 16.690 mg/mL and 17.802 mg/mL.
For `CNS(=O)(=O)C[C@H]1CC[C@H](N(C)c2ncnc3[nH]ccc23)CC1` [example 8, amorphous oclacitinib maleate], the “Change of solid state on storage (XRPD)” value ([2]; 25° C. at 0% rH, after 2 weeks) was “remains stable”, the “Change of solid state on storage (XRPD)” value ([2]; 25° C. at 25% rH, 3 weeks) was “does not show any change of solid state” and the “Change of solid state on storage (XRPD)” value ([2]; 25° C. at 100% rH, after 2 weeks) was “conversion (intermediate graphs) of the amorphous phase to the monohydrate form of oclacitinib maleate”. For the same compound, the “Change of solid state on storage (XRPD)” value ([2]; 40° C. at 75% rH, after 2 weeks) was “conversion (intermediate graphs) of the amorphous phase to the monohydrate form of oclacitinib maleate”.
With `CNS(=O)(=O)C[C@H]1CC[C@H](N(C)c2ncnc3[nH]ccc23)CC1` [example 9, amorphous oclacitinib maleate] the “Change of solid state on storage (XRPD)” value ([2]; 25° C. at 25% rH, 3 weeks) was “mixture (upper graph) comprising amorphous oclacitinib maleate and oclacitinib maleate form A”.
In the case of `CNS(=O)(=O)C[C@H]1CC[C@H](N(C)c2ncnc3[nH]ccc23)CC1` [monohydrate form of oclacitinib maleate], the “Solid form found after storage” value ([2]; 25° C./0% rH, Week 1) is reported as “Monohydrate”, the “Solid form found after storage” value ([2]; 25° C./0% rH, Week 4) is reported as “Monohydrate” and the “Solid form found after storage” value ([2]; 25° C./100% rH, Week 1) is reported as “Monohydrate”. For the same compound, the “Solid form found after storage” value ([2]; 25° C./100% rH, Week 4) was “Monohydrate”, the “Solid form found after storage” value ([2]; 40° C./75% rH, Week 1) was “Monohydrate” and the “Solid form found after storage” value ([2]; 40° C./75% rH, Week 4) was “Monohydrate”. The “Stability of solid form” value ([2]; all three storage conditions (25° C./0% rH, 40° C./75% rH, 25° C./100% rH)) was “stable under all storage conditions”, the “Stability of solid state with respect to relative humidity, in words” value ([2]; low (<50% rH) and high (>50% rH) relative humidity) was “stable by any relative humidity of the surrounding air” and the “Solubility, Average” value [1] was 8.994 mg/mL. The “Solubility compared to oclacitinib maleate form A” value [1] was “halved” and the Solubility [1] was 9.053 mg/mL and 9.047 mg/mL and 8.884 mg/mL.
For `CNS(=O)(=O)C[C@H]1CC[C@H](N(C)c2ncnc3[nH]ccc23)CC1` [oclacitinib maleate form B], the “Solid form found after storage” value ([2]; 25° C./0% rH, Week 1) was “Form B”, the “Solid form found after storage” value ([2]; 25° C./0% rH, Week 4) was “Form A” and the “Solid form found after storage” value ([2]; 25° C./0% rH, Week 12) was “Form A”. For the same compound, the “Solid form found after storage” value ([2]; 25° C./100% rH, Week 1) was “Form B”, the “Solid form found after storage” value ([2]; 25° C./100% rH, Week 4) was “Form B” and the “Solid form found after storage” value ([2]; 25° C./100% rH, Week 12) was “Form B”. The “Solid form found after storage” value ([2]; 40° C./75% rH, Week 1) was “Form B”, the “Solid form found after storage” value ([2]; 40° C./75% rH, Week 4) was “Form B” and the “Solid form found after storage” value ([2]; 40° C./75% rH, Week 12) was “Form B”. For the same compound, the “Relative humidity at which the solid form is stable / can be stored” value [2] was “at least 30%”, the “Stability of solid form” value [2, 4] was “is stable” and the “Stability of solid form” value [2, 5] was “is stable”. For the same compound, the “Stability of solid form” value [2, 6] was “converses into oclacitinib maleate form A” and the Hygroscopicity [3] was “non-hygroscopic”.
In the case of `CNS(=O)(=O)C[C@H]1CC[C@H](N(C)c2ncnc3[nH]ccc23)CC1` [tetramethyl urea solvate form of oclacitinib maleate], the “Solid form found after storage” value ([2]; 25° C./0% rH, Week 1) is reported as “TMU solvate”, the “Solid form found after storage” value ([2]; 25° C./0% rH, Week 4) is reported as “TMU solvate” and the “Solid form found after storage” value ([2]; 25° C./0% rH, Week 12) is reported as “TMU solvate”. For the same compound, the “Solid form found after storage” value ([2]; 25° C./100% rH, Week 1) was “Form B”, the “Solid form found after storage” value ([2]; 25° C./100% rH, Week 4) was “Form B” and the “Solid form found after storage” value ([2]; 25° C./100% rH, Week 12) was “Form B”. For the same compound, the “Solid form found after storage” value ([2]; 40° C./75% rH, Week 1) was “Form B”, the “Solid form found after storage” value ([2]; 40° C./75% rH, Week 4) was “Form B” and the “Solid form found after storage” value ([2]; 40° C./75% rH, Week 12) was “Form B”. For the same compound, the “Stability of solid form” value [2, 4] was “converses into oclacitinib maleate form B”, the “Stability of solid form” value [2, 5] was “converses into oclacitinib maleate form B” and the “Stability of solid form” value [2, 6] was “is stable”.
